Source: patent US20190208782A1, “PROCESSING COMPOSITION FOR C[…] WEEDS” (Arch Chemicals, Inc., priority 2018, published 2019)
Values after ≈ are worked out from the molar mass of the structure shown.

Tests used:
Eurasian watermilfoil = assay: Efficacy of fluroxypyr herbicide on Eurasian watermilfoil under mesocosm conditions (Example 1); assay type: in vivo; details: 24 h exposure
Description: Materials and Methods: Eurasian watermilfoil was obtained from cultures. Two apical tips approximately 15 cm long were planted into each of 108, plastic containers. The containers were filled with Black Kow potting soil and amended with 2 g/L Osmocote fertilizer 19-6-12. Four containers of potted Eurasian watermilfoil were placed into each of 27 mesocosm tanks. Mesocosm tanks were filled to a volume of 276 L (48 cm depth) and plants allowed to grow approximately 2-3 weeks prior to herbicide treatments or until plants were at or near the water surface. Pre-treatment biomass was harvested from an extra mesocosm tank set up with potted Eurasian watermilfoil for this purpose. Biomass was harvested by collecting aboveground biomass of plants in the tank. Plant material were dried at 70 C for at least 48 h and weighed to assess biomass.
After pre-treatment data collection, concentrated liquid herbicides were applied as the formulations and rates outlined in Table 1. An untreated reference was also included for comparison purposes. All herbicide applications were made using a 24 h exposure and replicated 3 times. After the exposure time was reached, each mesocosm tank was drained and refilled with fresh water to remove any herbicide residue remaining in the water column.
Each week, tanks were rated for percent control on a 0-100% scale (0%=no control; 100%=complete plant mortality). Four weeks after treatment (WAT), living plants were harvested, sorted to aboveground biomass, dried, and weighed for biomass determination. Differences between treatments were analyzed using an ANOVA test with means separated using a Fisher's Protected LSD test. Fluroxypyr data were fitted to an exponential decay regression model in order to estimate the EC50 value for fluroxypyr use on Eurasian watermilfoil.

water hyacinth = assay: Foliar application of fluroxypyr herbicide on water hyacinth (Example 2); assay type: in vivo; details: for Water hyacinth biomass reduction: 6 WAT
Description: Materials and Methods: Water hyacinth was obtained from field locations and cultured outdoors in a 300 gallon tank. Water in the culture tank was amended with 30 mg/L Miracle-Gro® fertilizer (14-8-16) every week to maintain plant growth. Aquashade® was added to the tank in sufficient concentration to darken the water in order to reduce algae growth
Once a sufficient density of water hyacinth had been achieved in the culture tank (plants had covered the water surface), 54-63 rosettes of similar size were harvested and divided so that six to seven rosettes (depending upon size) were placed into each of 9, 100 gallon treatment tanks. The treatment tanks were filled to a depth of 45 cm with water. Water in each treatment tank was amended and maintained in a similar fashion as the culture tank. Plants were allowed to grow approximately 2 weeks or until the water surface in each tank had been covered. Pre-treatment biomass (1 per tank) was harvested using a 0.1 m^2 PVC quadrat. The quadrat was pushed down over the plant mat in each tank and all biomass was harvested within the PVC frame. Biomass from each tank was rinsed, placed in a paper bag, and dried at 50 C to assess biomass.
After the growth period and pre-treatment harvest, plants were treated as a foliar spray using the product and rates outlined in Table 3. Treatments were applied using water as a carrier in a fine foliar spray and a total spray volume of 100 gal/acre. AB Brand Adjuvant (commercially available from Lonza, Inc.) was included in the herbicide solution at a rate of 0.25% v:v.
After treatment, each tank was rated on a scale from 0 (no control) to 100% (complete mortality) control every week for six weeks. At six weeks after treatment the 0.1 m^2 PVC quadrat was used to harvest 1 biomass sample from each tank if living biomass was present. Samples were rinsed, placed into labeled paper bags, and dried at 50 C to determine dry weight biomass. Differences between treatments were analyzed using ANOVA at a p≤0.05 significance level, and if a difference in treatments was detected means were then separated using a Fisher's Protected LSD test.

CCCCCCC(C)OC(=O)COc1nc(F)c(Cl)c(N)c1Cl (stereo not shown) [Fluroxypyr ester, [(4-amino-3,5-dichloro-6-fluoro-2-pyridinyl)oxy]acetic acid, 1-methylheptyl ester]
Visual control ratings of Eurasian watermilfoil (Eurasian watermilfoil; 50 ug/L, 1 WAT): 30%
Visual control ratings of Eurasian watermilfoil (Eurasian watermilfoil; 50 ug/L, 2 WAT): 60%
Visual control ratings of Eurasian watermilfoil (Eurasian watermilfoil; 50 ug/L, 3 WAT): 50%
Visual control ratings of Eurasian watermilfoil (Eurasian watermilfoil; 50 ug/L, 4 WAT): 45%
biomass reduction of Eurasian watermilfoil (Eurasian watermilfoil; 50 ug/L, 4 WAT): 76%
Visual control ratings of Eurasian watermilfoil (Eurasian watermilfoil; 100 ug/L, 1 WAT): 60%
Visual control ratings of Eurasian watermilfoil (Eurasian watermilfoil; 100 ug/L, 2 WAT): 90%
Visual control ratings of Eurasian watermilfoil (Eurasian watermilfoil; 100 ug/L, 3 WAT): 90%
Visual control ratings of Eurasian watermilfoil (Eurasian watermilfoil; 100 ug/L, 4 WAT): 95%
biomass reduction of Eurasian watermilfoil (Eurasian watermilfoil; 100 ug/L, 4 WAT): 99%
Visual control ratings of Eurasian watermilfoil (Eurasian watermilfoil; 200 ug/L, 1 WAT): 60%
Visual control ratings of Eurasian watermilfoil (Eurasian watermilfoil; 200 ug/L, 2 WAT): 100%
Visual control ratings of Eurasian watermilfoil (Eurasian watermilfoil; 200 ug/L, 3 WAT): 100%
Visual control ratings of Eurasian watermilfoil (Eurasian watermilfoil; 200 ug/L, 4 WAT): 100%
Visual control ratings of Eurasian watermilfoil (Eurasian watermilfoil; 400 ug/L, 1 WAT): 70%
Visual control ratings of Eurasian watermilfoil (Eurasian watermilfoil; 400 ug/L, 2 WAT): 100%
Visual control ratings of Eurasian watermilfoil (Eurasian watermilfoil; 400 ug/L, 3 WAT): 100%
Visual control ratings of Eurasian watermilfoil (Eurasian watermilfoil; 400 ug/L, 4 WAT): 100%
Visual control ratings of Eurasian watermilfoil (Eurasian watermilfoil; 800 ug/L, 1 WAT): 70%
Visual control ratings of Eurasian watermilfoil (Eurasian watermilfoil; 800 ug/L, 2 WAT): 100%
Visual control ratings of Eurasian watermilfoil (Eurasian watermilfoil; 800 ug/L, 3 WAT): 100%
Visual control ratings of Eurasian watermilfoil (Eurasian watermilfoil; 800 ug/L, 4 WAT): 100%
Visual control ratings of Eurasian watermilfoil (Eurasian watermilfoil; 1600 ug/L, 1 WAT): 80%
Visual control ratings of Eurasian watermilfoil (Eurasian watermilfoil; 1600 ug/L, 2 WAT): 100%
Visual control ratings of Eurasian watermilfoil (Eurasian watermilfoil; 1600 ug/L, 3 WAT): 100%
Visual control ratings of Eurasian watermilfoil (Eurasian watermilfoil; 1600 ug/L, 4 WAT): 100%
Visual control ratings of Eurasian watermilfoil (Eurasian watermilfoil; 3200 ug/L, 1 WAT): 80%
Visual control ratings of Eurasian watermilfoil (Eurasian watermilfoil; 3200 ug/L, 2 WAT): 100%
Visual control ratings of Eurasian watermilfoil (Eurasian watermilfoil; 3200 ug/L, 3 WAT): 100%
Visual control ratings of Eurasian watermilfoil (Eurasian watermilfoil; 3200 ug/L, 4 WAT): 100%
EC50 (Eurasian watermilfoil; 4 WAT, mesocosm, read-out: EC50 for Eurasian watermilfoil (biomass, exponential decay regression model)): 8.8 ng/mL (≈ 0.024 µM)
Mean percent control ratings of water hyacinth (water hyacinth; 8 oz/acre foliar spray, 1 week after treatment): 15%
Mean percent control ratings of water hyacinth (water hyacinth; 8 oz/acre foliar spray, 2 weeks after treatment): 40%
Mean percent control ratings of water hyacinth (water hyacinth; 8 oz/acre foliar spray, 3 weeks after treatment): 45%
Mean percent control ratings of water hyacinth (water hyacinth; 8 oz/acre foliar spray, 4 weeks after treatment): 65%
Mean percent control ratings of water hyacinth (water hyacinth; 8 oz/acre foliar spray, 5 weeks after treatment): 85%
Water hyacinth biomass reduction (water hyacinth; 8 oz/acre foliar spray): 90%
Mean percent control ratings of water hyacinth (water hyacinth; 8 oz/acre foliar spray, 6 weeks after treatment): 85%
time of plant death (water hyacinth; 16 oz/acre foliar spray): approximately 4 WAT
Mean percent control ratings of water hyacinth (water hyacinth; 16 oz/acre foliar spray, 1 week after treatment): 35%
Mean percent control ratings of water hyacinth (water hyacinth; 16 oz/acre foliar spray, 2 weeks after treatment): 45%
Mean percent control ratings of water hyacinth (water hyacinth; 16 oz/acre foliar spray, 3 weeks after treatment): 65%
Mean percent control ratings of water hyacinth (water hyacinth; 16 oz/acre foliar spray, 4 weeks after treatment): 85%
Mean percent control ratings of water hyacinth (water hyacinth; 16 oz/acre foliar spray, 5 weeks after treatment): 95%
Water hyacinth biomass reduction (water hyacinth; 16 oz/acre foliar spray): 99%
Mean percent control ratings of water hyacinth (water hyacinth; 16 oz/acre foliar spray, 6 weeks after treatment): 95%
